What was measured:
Assay type in all cases: biochemical
Hs_CDK5/p25 = Hs_CDK5/p25 (Homo sapiens, UniProt Q00535); assay: primary screening, short panel of mammalian kinases; conditions: ATP 10 µM, means, n = 2, read-out: Residual kinase activity Hs_CDK5/p25; for remaining activity at 1 µM: compound 1 μM; for remaining activity at 10 µM: compound 10 μM
Description: (§1) Our molecules have been submitted first to a primary screening against a panel of eight disease-related kinases: five members of the CMGC (for CDK, MAPK, GSK3, and CLK) group (CDK5/p25, CDK9/CyclinT, GSK3β, CLK1 and DYRK1A), one CAMK (calmodulin/calcium regulated kinase PIM1), one CK1 (the casein kinase CK1ε), and haspin as a […] kinase.
(§2) Figure 4 Primary evaluation of the inhibition of the new quinazolines against a short panel of mammalian kinases. Residual kinase activities are expressed in % of maximal activity, i.e., measured in the absence of inhibitor but with an equivalent dose of DMSO (solvent of the tested compounds). ATP concentration used in the kinase assays was 10 µM (values are means, n = 2). Kinases are from human origin (Homo sapiens) except CLK1 (from Mus musculus) and DYRK1A (from Rattus norvegicus). […]

Hs_CDK9/CyclinT = Hs_CDK9/CyclinT (Homo sapiens, UniProt P50750); assay: as above; conditions: ATP 10 µM, means, n = 2, read-out: Residual kinase activity Hs_CDK9/CyclinT; for remaining activity at 1 µM: compound 1 μM; for remaining activity at 10 µM: compound 10 μM
Description: as §1, §2

Hs_CK1ε = Hs_CK1ε (Homo sapiens, UniProt P49674); assay: as above; conditions: ATP 10 µM, means, n = 2, read-out: Residual kinase activity Hs_CK1ε; for remaining activity at 1 µM: compound 1 μM; for remaining activity at 10 µM: compound 10 μM
Description: as §1, §2

Hs_GSK3β = Hs_GSK3β (Homo sapiens, UniProt P49841); assay: as above; conditions: ATP 10 µM, means, n = 2, read-out: Residual kinase activity Hs_GSK3β; for remaining activity at 1 µM: compound 1 μM; for remaining activity at 10 µM: compound 10 μM
Description: as §1, §2

Hs_HASPIN = biological target: T1, Hs_HASPIN (Homo sapiens, UniProt Q8TF76); assay: as above; conditions: ATP 10 µM, means, n = 2, read-out: Residual kinase activity Hs_HASPIN; for remaining activity at 1 µM: compound 1 μM; for remaining activity at 10 µM: compound 10 μM
T1 sequence (Q8TF76 1-798): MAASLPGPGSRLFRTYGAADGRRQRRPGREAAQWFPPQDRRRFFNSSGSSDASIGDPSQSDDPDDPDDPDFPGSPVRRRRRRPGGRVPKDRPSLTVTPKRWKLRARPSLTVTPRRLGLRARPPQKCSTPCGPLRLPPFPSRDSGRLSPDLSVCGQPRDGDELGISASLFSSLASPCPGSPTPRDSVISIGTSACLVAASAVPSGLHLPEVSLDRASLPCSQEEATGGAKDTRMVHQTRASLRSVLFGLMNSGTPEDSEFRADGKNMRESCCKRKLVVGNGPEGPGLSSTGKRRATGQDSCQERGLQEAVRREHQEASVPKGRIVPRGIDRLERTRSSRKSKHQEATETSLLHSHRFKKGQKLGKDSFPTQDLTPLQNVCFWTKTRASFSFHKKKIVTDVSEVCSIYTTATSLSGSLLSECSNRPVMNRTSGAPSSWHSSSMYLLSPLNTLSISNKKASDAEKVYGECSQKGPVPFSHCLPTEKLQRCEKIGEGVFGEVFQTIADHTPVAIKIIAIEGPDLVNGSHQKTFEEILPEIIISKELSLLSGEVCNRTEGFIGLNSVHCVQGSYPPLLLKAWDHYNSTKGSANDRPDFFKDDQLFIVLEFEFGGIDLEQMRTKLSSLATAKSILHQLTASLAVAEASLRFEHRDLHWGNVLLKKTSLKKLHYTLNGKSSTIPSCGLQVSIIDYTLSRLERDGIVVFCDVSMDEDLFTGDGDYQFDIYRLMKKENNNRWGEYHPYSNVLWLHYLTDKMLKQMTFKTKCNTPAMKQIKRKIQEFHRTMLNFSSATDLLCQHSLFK
Description: as §1, §2

Hs_PIM1 = Hs_PIM1 (Homo sapiens, UniProt P11309); assay: as above; conditions: ATP 10 µM, means, n = 2, read-out: Residual kinase activity Hs_PIM1; for remaining activity at 1 µM: compound 1 μM; for remaining activity at 10 µM: compound 10 μM
Description: as §1, §2

Mm_CLK1 [1] = biological target: T2, Mm_CLK1 (Mus musculus, UniProt P22518); assay: as above; conditions: for remaining activity at 1 µM: compound 1 μM; for remaining activity at 1 µM / remaining activity at 10 µM: ATP 10 µM, means, n = 2, read-out: Residual kinase activity Mm_CLK1; for remaining activity at 10 µM: compound 10 μM
Description: as §1, §2

Rn_DYRK1A = Rn_DYRK1A (Rattus norvegicus, UniProt Q63470); assay: as above; conditions: ATP 10 µM, means, n = 2, read-out: Residual kinase activity Rn_DYRK1A; for remaining activity at 1 µM: compound 1 μM; for remaining activity at 10 µM: compound 10 μM
Description: as §1, §2

Mm_CLK1 [2] = biological target: T2, Mm_CLK1; assay: radiometric γ33P-ATP kinase assay (Eurofins)
Method: (§3) The results are reported in Table 2 and in Supporting Information File 1.
(§4) 2- Kinase inhibition studies
(§5) Kinase enzymatic activities were assayed using both luminescent ADP detection assay
(§6) (ADP-GloTM assay kit, Promega, Madison, WI) or radiometric kinase assay. These
(§7) assays were performed using the protocols described in our previous publication. […]
(§8) 1.Brahmaiah, D.; Kanaka Durga Bhavani, A.; Aparna, P.; Sampath Kumar, N.; Solhi,
(§9) H.; Le Guevel, R.; Baratte, B.; Ruchaud, S.; Bach, S.; Singh Jadav, S.; Raji Reddy, C.;
(§10) Roisnel, T.; Mosset, P.; Levoin, N.; Grée, R. Bioorg.
(§11) R.; Baratte, B.; Robert, T.; Ruchaud, S.; Bach, S.; Jadav, S. S.; Reddy, C. […]

Mm_CLK2 = Mm_CLK2 (Mus musculus, UniProt O35491); assay: radiometric γ33P-ATP kinase assay (Eurofins)
Method: as §3, §4, §5, §6, §7, §8, §9, §10, §11

Mm_CLK4 = Mm_CLK4 (Mus musculus, UniProt O35493); assay: radiometric γ33P-ATP kinase assay (Eurofins)
Method: as §3, §4, §5, §6, §7, §8, §9, §10, §11

Mm_CLK3 = Mm_CLK3 (Mus musculus, UniProt O35492); assay: radiometric γ33P-ATP kinase assay (Eurofins); conditions: 15 µM ATP; dose-response, points in duplicate
Method: as §3, §4, §5, §6, §7, §8, §9, §10
R.; Baratte, B.; Robert, T.; Ruchaud, S.; Bach, S.; Jadav, S. S.; Reddy, C. R.; Mosset,
P.; Gouault, N.; Levoin, N.; Grée, R. Molecules 2022, 27, 6149. […]

[3] = 15 µM ATP, dose-response, points in duplicate

Chain of Hs_CK1ε (P49674 whole entry): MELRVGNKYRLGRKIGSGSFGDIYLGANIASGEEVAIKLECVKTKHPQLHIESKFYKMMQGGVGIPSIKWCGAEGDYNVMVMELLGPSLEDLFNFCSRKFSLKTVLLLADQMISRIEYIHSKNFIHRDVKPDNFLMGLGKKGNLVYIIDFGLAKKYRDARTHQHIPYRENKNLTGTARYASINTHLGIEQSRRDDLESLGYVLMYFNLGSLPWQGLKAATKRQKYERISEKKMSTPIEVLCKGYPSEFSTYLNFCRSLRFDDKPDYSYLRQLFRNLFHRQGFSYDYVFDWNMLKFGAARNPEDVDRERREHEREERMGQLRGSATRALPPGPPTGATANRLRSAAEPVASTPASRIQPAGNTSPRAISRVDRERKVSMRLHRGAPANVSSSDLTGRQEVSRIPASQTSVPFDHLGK
T2 sequence (P22518 whole entry): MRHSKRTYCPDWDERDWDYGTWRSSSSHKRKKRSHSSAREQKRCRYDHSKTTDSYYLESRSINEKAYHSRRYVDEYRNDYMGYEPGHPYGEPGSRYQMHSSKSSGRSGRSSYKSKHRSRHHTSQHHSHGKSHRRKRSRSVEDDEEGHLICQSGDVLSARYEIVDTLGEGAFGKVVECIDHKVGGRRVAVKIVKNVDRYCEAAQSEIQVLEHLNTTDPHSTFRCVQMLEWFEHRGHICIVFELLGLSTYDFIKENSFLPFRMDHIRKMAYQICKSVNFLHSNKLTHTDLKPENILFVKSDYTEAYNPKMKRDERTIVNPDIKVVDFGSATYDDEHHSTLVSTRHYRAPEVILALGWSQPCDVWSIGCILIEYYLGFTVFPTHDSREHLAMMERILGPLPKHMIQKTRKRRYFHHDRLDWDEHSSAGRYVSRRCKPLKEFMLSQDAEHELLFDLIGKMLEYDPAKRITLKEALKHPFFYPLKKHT
Chain of Hs_CDK9/CyclinT (P50750 whole entry): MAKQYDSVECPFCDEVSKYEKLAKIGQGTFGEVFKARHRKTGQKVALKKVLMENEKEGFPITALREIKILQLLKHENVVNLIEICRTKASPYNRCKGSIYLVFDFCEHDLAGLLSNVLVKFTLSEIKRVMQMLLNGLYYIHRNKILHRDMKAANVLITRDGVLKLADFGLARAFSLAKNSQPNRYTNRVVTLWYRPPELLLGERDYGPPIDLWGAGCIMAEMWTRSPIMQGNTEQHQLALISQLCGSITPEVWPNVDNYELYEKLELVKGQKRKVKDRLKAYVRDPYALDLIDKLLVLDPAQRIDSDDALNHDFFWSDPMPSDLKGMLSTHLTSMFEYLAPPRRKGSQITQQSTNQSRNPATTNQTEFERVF
Chain of Hs_CDK9/CyclinT (O60563 whole entry partner): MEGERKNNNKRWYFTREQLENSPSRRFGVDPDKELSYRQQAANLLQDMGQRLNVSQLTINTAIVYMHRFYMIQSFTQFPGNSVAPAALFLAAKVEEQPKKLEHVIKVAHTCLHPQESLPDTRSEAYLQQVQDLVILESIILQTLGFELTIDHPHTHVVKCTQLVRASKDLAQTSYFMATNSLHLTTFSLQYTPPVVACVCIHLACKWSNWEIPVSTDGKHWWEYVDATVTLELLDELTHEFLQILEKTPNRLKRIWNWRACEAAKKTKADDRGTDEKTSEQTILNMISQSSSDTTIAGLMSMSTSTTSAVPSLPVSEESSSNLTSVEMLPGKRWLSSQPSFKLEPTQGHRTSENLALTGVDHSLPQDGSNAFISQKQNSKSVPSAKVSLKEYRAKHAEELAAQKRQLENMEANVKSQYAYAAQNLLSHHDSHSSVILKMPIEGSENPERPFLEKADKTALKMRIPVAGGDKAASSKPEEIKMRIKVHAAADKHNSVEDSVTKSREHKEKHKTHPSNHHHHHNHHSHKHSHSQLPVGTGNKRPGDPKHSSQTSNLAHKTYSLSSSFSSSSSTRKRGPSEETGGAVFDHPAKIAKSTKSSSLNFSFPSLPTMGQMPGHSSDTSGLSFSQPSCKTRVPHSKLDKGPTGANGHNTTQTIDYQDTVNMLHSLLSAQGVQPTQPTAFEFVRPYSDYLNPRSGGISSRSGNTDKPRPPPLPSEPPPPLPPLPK
Chain of Hs_GSK3β (P49841 whole entry): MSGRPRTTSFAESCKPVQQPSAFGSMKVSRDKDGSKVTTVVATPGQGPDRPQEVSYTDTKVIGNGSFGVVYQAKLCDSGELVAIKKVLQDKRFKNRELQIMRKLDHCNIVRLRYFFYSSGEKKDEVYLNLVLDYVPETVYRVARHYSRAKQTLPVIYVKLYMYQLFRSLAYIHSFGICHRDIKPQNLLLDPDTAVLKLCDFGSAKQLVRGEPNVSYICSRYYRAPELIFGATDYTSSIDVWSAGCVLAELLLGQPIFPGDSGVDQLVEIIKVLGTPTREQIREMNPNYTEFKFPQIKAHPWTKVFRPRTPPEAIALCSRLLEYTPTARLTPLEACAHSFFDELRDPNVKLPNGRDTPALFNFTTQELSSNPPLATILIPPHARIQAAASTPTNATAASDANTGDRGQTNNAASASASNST
Chain of Hs_PIM1 (P11309 whole entry): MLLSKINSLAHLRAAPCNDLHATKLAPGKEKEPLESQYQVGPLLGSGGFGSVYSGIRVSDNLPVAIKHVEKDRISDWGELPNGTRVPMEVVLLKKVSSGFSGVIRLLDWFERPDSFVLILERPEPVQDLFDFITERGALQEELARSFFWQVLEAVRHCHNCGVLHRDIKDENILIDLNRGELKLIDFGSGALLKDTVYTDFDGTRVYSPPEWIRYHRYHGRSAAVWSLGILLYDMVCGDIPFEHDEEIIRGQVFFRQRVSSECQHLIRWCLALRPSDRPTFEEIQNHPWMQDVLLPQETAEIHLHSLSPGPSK
Chain of Hs_CDK5/p25 (Q00535 whole entry): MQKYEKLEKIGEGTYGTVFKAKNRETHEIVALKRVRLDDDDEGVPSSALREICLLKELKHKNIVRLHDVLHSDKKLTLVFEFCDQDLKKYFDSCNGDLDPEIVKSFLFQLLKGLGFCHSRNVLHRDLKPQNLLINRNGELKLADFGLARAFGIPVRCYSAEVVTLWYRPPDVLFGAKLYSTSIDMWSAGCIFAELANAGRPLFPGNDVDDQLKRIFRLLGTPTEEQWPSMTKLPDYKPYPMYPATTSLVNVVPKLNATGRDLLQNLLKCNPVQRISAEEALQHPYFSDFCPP
Chain of Hs_CDK5/p25 (Q15078 99-307 partner limits assumed): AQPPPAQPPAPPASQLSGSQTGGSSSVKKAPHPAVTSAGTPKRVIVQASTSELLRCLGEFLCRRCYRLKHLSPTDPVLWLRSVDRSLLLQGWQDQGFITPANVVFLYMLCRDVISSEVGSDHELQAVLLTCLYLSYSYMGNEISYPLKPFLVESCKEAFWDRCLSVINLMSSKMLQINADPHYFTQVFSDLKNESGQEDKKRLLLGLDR
Chain of Mm_CLK4 (O35493 whole entry): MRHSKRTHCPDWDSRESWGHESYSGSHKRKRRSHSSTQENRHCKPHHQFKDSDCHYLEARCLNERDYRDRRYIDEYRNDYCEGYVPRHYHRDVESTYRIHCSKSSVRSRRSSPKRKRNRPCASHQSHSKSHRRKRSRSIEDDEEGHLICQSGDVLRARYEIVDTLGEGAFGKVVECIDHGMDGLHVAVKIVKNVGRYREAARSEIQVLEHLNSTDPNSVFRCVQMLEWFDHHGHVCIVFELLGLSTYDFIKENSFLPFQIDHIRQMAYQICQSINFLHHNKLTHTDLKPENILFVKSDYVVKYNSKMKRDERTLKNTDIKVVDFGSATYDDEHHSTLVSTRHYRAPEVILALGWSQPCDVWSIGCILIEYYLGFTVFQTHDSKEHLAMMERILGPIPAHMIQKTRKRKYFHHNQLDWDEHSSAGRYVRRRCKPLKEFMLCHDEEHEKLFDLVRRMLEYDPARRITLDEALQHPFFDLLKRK
Chain of Mm_CLK2 (O35491 whole entry): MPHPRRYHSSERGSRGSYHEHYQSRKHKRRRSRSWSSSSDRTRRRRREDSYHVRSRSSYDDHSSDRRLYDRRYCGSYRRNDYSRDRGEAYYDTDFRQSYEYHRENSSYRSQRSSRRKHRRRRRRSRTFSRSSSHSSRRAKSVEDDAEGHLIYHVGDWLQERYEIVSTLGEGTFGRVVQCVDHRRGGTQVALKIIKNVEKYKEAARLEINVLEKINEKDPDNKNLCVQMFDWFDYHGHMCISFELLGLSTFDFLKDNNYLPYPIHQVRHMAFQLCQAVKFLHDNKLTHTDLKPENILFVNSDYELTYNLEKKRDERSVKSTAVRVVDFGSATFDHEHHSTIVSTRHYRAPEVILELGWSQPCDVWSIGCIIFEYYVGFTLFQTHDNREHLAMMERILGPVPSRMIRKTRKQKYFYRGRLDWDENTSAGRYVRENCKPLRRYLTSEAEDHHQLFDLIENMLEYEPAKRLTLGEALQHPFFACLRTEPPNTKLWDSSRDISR
Chain of Mm_CLK3 (O35492 whole entry): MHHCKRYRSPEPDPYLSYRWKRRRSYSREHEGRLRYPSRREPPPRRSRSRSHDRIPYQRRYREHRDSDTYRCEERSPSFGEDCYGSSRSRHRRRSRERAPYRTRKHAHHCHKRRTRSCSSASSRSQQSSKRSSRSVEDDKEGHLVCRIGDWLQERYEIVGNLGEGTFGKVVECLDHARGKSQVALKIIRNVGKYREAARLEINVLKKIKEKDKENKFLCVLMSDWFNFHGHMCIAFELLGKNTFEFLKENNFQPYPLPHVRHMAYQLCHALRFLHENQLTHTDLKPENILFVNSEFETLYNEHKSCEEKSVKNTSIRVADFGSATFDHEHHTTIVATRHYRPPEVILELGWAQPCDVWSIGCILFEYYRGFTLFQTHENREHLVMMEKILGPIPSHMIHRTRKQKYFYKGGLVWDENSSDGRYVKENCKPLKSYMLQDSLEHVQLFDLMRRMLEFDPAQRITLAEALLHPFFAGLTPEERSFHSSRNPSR

Row | remaining activity at 1 µM (Hs_CDK5/p25) [%] | remaining activity at 10 µM (Hs_CDK5/p25) [%] | remaining activity at 1 µM (Hs_CDK9/CyclinT) [%] | remaining activity at 10 µM (Hs_CDK9/CyclinT) [%] | remaining activity at 1 µM (Hs_CK1ε) [%] | remaining activity at 10 µM (Hs_CK1ε) [%] | remaining activity at 1 µM (Hs_GSK3β) [%] | remaining activity at 10 µM (Hs_GSK3β) [%] | remaining activity at 1 µM (Hs_HASPIN) [%] | remaining activity at 10 µM (Hs_HASPIN) [%] | remaining activity at 1 µM (Hs_PIM1) [%] | remaining activity at 10 µM (Hs_PIM1) [%] | remaining activity at 1 µM (Mm_CLK1 [1]) [%] | remaining activity at 10 µM (Mm_CLK1 [1]) [%] | remaining activity at 1 µM (Rn_DYRK1A) [%] | remaining activity at 10 µM (Rn_DYRK1A) [%] | SMILES | further results
1 | 53 | 43 | 99 | 66 | ≥ 100 | 92 | 92 | 56 | 85 | 92 | 84 | ≥ 100 | 38 | 8 | 82 | 94 | Cc1ccc(-n2cc(COc3cccc4cnc(Nc5cc(Cl)cc(-c6ccc(C(=O)O)cc6)c5)nc34)nn2)c([N+](=O)[O-])c1 [Compound 10b] | activity against CLK1 in primary screening (Mm_CLK1 [1]; 1 and 10 µM): significant activity against CLK1; IC50 (Mm_CLK1 [2]; [3]): 213 nM; Mm_CLK3/Mm_CLK1 (Mm_CLK1 [2]; ratio of IC50 values): 4.04; IC50 (Mm_CLK2; [3]): 118 nM; Mm_CLK3/Mm_CLK2 (Mm_CLK2; ratio of IC50 values): 7.29; IC50 (Mm_CLK4; [3]): 145 nM; Mm_CLK3/Mm_CLK4 (Mm_CLK4; ratio of IC50 values): 5.94; IC50 (Mm_CLK3): 861 nM
2 | 74 | ≥ 100 | 96 | 91 | ≥ 100 | ≥ 100 | 90 | 86 | 65 | 43 | ≥ 100 | 96 | 60 | 66 | ≥ 100 | ≥ 100 | COC(=O)c1ccc(-c2cc(Cl)cc(Nc3ncc4cccc(OCc5cn(-c6ccc(C)cc6[N+](=O)[O-])nn5)c4n3)c2)cc1 [Compound 9b] | –
3 | 85 | 92 | 94 | 83 | ≥ 100 | ≥ 100 | 97 | 62 | 47 | 39 | 90 | 98 | 54 | 48 | ≥ 100 | ≥ 100 | COC(=O)c1cccc(-c2cc(Cl)cc(Nc3ncc4cccc(OCc5cn(-c6ccc(C)cc6[N+](=O)[O-])nn5)c4n3)c2)c1 [Compound 12b] | –
